From patent US12606541B2, “PPARg modulators and methods of use” (Eisai R&D Management Co., Ltd., priority 2020, dated 2026)
Read-outs that look alike come from different tables or passages of the source.

Columns and labels:
[1] = system: UM-UC-9 engineered cells; assay: Cell proliferation / short-term viability assay, CellTiter-Glo 144 h; assay type: cell-based, human; details: read-out: CTGlo 144 h UMUC9.5, G150
Procedure, shortened: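 UM-UC-9 engineered assay-ready cells seeded at 500 cells/well in high-glucose DMEM/10% FBS, treated from dose-response plates, grown at 37° C, 5% CO2. CellTiter-Glo 2.0 luminescence read on day 7, with a day-0 pretreatment plate as T0 reference and DMSO wells as negative control.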

[2] = biological target: T1, His6-TEV-PPARγ-(234-505) (Homo sapiens, UniProt P37231); assay: TR-FRET Assay to Measure Co-R Peptide Recruitment to PPARγ; assay type: biochemical; details: Co-R peptide (SMRT-ID2) recruitment; top final concentration 20 μM; read-out: TR-FRET i-Ag; AC50
T1 construct: The His6-TEV-PPARγ-(234-505) protein for assay was expressed and purified; TEV cleavage site (N); made in house
T1 sequence (P37231 234-505): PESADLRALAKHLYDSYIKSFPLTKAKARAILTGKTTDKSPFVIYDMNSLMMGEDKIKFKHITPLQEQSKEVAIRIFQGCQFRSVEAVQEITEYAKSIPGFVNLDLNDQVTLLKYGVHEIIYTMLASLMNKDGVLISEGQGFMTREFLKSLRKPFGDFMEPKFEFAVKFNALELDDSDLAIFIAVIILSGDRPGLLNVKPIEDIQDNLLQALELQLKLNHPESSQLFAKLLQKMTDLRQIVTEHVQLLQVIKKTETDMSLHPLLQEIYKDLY
Procedure, shortened: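 His-tagged PPARγ (or controls) was preincubated with compound for 20 minutes at room temperature, then 5 nM anti-His terbium antibody and 200 nM FITC-labeled SMRT-ID2 corepressor peptide (final) were added for a further hour. TR-FRET signal was normalized to percent response using 500 nM T0070907 and DMSO controls.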

SMILES | AC50 [2] [nM] | IC50 [1] [nM] | IC50 ([1]; Homo sapiens, UM-UC-9, 144 h) [nM]
COc1cc(-c2cc(C(=O)N3CC[C@H](C(=O)NC4CCN(c5cnc(C)nc5)C4)CC34CC4)n[nH]2)c(F)cn1 (single isomer, unassigned) [Example 453-B] | 8.2 | 398 | 
COc1cc(-c2cc(C(=O)N3CC[C@H](C(=O)NC4CCN(CC5(O)COC5)C4)CC34CC4)n[nH]2)c(F)cn1 (single isomer, unassigned) [Example 454-A] | 88.7 | 1790 | 
COc1cc(-c2cc(C(=O)N3CC[C@H](C(=O)NC4CCN(C5COC56CNC6)C4)CC34CC4)n[nH]2)c(F)cn1 (single isomer, unassigned) [Example 461-A] | 272 | > 10000 | 
COc1cc(-c2cc(C(=O)N3CC[C@H](C(=O)NC4CCN(C5COC56CNC6)C4)CC34CC4)n[nH]2)c(F)cn1 (single isomer, unassigned) [Example 461-B] | 324 | > 10000 | 
COc1cc(-c2cc(C(=O)N3CC[C@H](C(=O)NC4CCN(C5COC56CNC6)C4)CC34CC4)n[nH]2)c(F)cn1 (single isomer, unassigned) [Example 461-C] | 375 | > 10000 | 
COc1cc(-c2cc(C(=O)N3CC[C@H](C(=O)NC4CCC(O)(C(F)(F)F)C(O)C4)CC34CC4)n[nH]2)c(F)cn1 (single isomer, unassigned) [Example 474-C] | 5.4 |  | 23.6
COc1cc(-c2cc(C(=O)N3CC[C@H](C(=O)NC4CCC(O)(C(F)(F)F)C(O)C4)CC34CC4)n[nH]2)c(F)cn1 (single isomer, unassigned) [Example 474-D] | 331 | 2020 | 
COc1cc(-c2cc(C(=O)N3CC[C@H](C(=O)NC4CCC(O)(C(F)(F)F)C(O)C4)CC34CC4)n[nH]2)c(F)cn1 (single isomer, unassigned) [Example 474-E] | 1500 | 1930 | 
COc1cc(-c2cc(C(=O)N3CC[C@H](C(=O)NC(C)c4cc5n(n4)CCN(C)C5)CC34CC4)n[nH]2)c(F)cn1 (single isomer, unassigned) [Example 475-A] | 433 | 2840 | 
COc1cc(-c2cc(C(=O)N3CC[C@H](C(=O)NC(C)c4cc5n(n4)CCN(C)C5)CC34CC4)n[nH]2)c(F)cn1 (single isomer, unassigned) [Example 475-B] | 102 | 583 | 
CCc1cc(-c2cc(C(=O)N3CCC(C(=O)NCc4ncc(F)cc4Cl)CC34CC4)n[nH]2)c(F)cn1 (single isomer, unassigned) [Example 483-A] | 216 | 1520 | 
CCc1cc(-c2cc(C(=O)N3CCC(C(=O)NCc4ncc(F)cc4Cl)CC34CC4)n[nH]2)c(F)cn1 (single isomer, unassigned) [Example 483-B] | 0.9 | 7.2 | 
COc1cc(-c2cc(C(=O)N3CC[C@H](C(=O)Nc4cnn5cc(C(C)O)ccc45)CC34CC4)n[nH]2)c(F)cn1 (single isomer, unassigned) [Example 495-A] | 23.2 | 287 | 
COc1cc(-c2cc(C(=O)N3CC[C@H](C(=O)Nc4cnn5cc(C(C)O)ccc45)CC34CC4)n[nH]2)c(F)cn1 (single isomer, unassigned) [Example 495-B] | 13.3 | 144 | 
COc1cc(-c2cc(C(=O)N3CC[C@H](C(=O)NC4CCC(C(F)(F)F)C(O)C4)CC34CC4)n[nH]2)c(F)cn1 (single isomer, unassigned) [Example 501-B] | 51.1 | 258 | 
COc1cc(-c2cc(C(=O)N3CC[C@H](C(=O)NC4CCCn5cc(C(F)(F)F)nc54)CC34CC4)n[nH]2)c(F)cn1 (single isomer, unassigned) [Example 502-A] | 110 | 750 | 
COc1cc(-c2cc(C(=O)N3CC[C@H](C(=O)NC4CCCn5cc(C(F)(F)F)nc54)CC34CC4)n[nH]2)c(F)cn1 (single isomer, unassigned) [Example 502-B] | 5.3 | 66.1 | 
COc1cc(-c2cc(C(=O)N3CC[C@H](C(=O)NCC4CCNCC4(F)F)CC34CC4)n[nH]2)c(F)cn1 (single isomer, unassigned) [Example 511-A] | 17.2 | 63.5 | 
COc1cc(-c2cc(C(=O)N3CC[C@H](C(=O)NCC4CCNCC4(F)F)CC34CC4)n[nH]2)c(F)cn1 (single isomer, unassigned) [Example 511-B] | 18.5 | 78.4 | 
COc1cc(-c2cc(C(=O)N3CC[C@H](C(=O)NC45CC(CO)(C4)OC5C)CC34CC4)n[nH]2)c(F)cn1 (single isomer, unassigned) [Example 518-B] | 996 | > 10000 | 
N#Cc1cc(-c2cc(C(=O)N3CCC(C(=O)NC4CCC(O)(C(F)(F)F)CC4)CC34CC4)n[nH]2)ncn1 (single isomer, unassigned) [Example 528-A] | 2090 | > 10000 | 
N#Cc1cc(-c2cc(C(=O)N3CCC(C(=O)NC4CCC(O)(C(F)(F)F)CC4)CC34CC4)n[nH]2)ncn1 (single isomer, unassigned) [Example 528-B] | 14 | 405 | 
O=C(NC1CCC(O)(C(F)(F)F)CC1)C1CCN(C(=O)c2cc(-c3cc(Cl)ncc3F)[nH]n2)C2(CC2)C1 (single isomer, unassigned) [Example 529-A] | 756 | 5560 | 

The next lines start with results.

AC50 [2] [nM] | SMILES | IC50 [1] [nM] | IC50 ([1]; Homo sapiens, UM-UC-9, 144 h) [nM]
100 | COc1cc(-c2cc(C(=O)N3CC[C@H](C(=O)NC4CCN(CC5(O)COC5)C4)CC34CC4)n[nH]2)c(F)cn1 (single isomer, unassigned) [Example 454-B] | 1880 | 
8 | COc1cc(-c2cc(C(=O)N3CC[C@H](C(=O)NC4CCN(CC(F)(F)CO)C4)CC34CC4)n[nH]2)c(F)cn1 (single isomer, unassigned) [Example 459-A] | 275 | 
13.1 | COc1cc(-c2cc(C(=O)N3CC[C@H](C(=O)NC4CCN(CC(F)(F)CO)C4)CC34CC4)n[nH]2)c(F)cn1 (single isomer, unassigned) [Example 459-B] | 83.4 | 
388 | COc1cc(-c2cc(C(=O)N3CC[C@H](C(=O)NC4CCN(C5COC56CNC6)C4)CC34CC4)n[nH]2)c(F)cn1 (single isomer, unassigned) [Example 461-D] | > 10000 | 
22.5 | COc1cc(-c2cc(C(=O)N3CC[C@H](C(=O)NCc4ncc(N5CC6CC5CN6)cc4Cl)CC34CC4)n[nH]2)c(F)cn1 (single isomer, unassigned) [Example 462-A] | 551 | 
14.4 | COc1cc(-c2cc(C(=O)N3CC[C@H](C(=O)NCc4ncc(N5CC6CC5CN6)cc4Cl)CC34CC4)n[nH]2)c(F)cn1 (single isomer, unassigned) [Example 462-B] | 573 | 
7.6 | COc1cc(-c2cc(C(=O)N3CC[C@H](C(=O)NC4CCN(C5COC56CCC6)C4)CC34CC4)n[nH]2)c(F)cn1 (single isomer, unassigned) [Example 464-D] |  | 25.2
327 | COc1cc(-c2cc(C(=O)N3CC[C@H](C(=O)NCc4ncc(N5CC6CC5CN6)cn4)CC34CC4)n[nH]2)c(F)cn1 (single isomer, unassigned) [Example 467-A] | > 10000 | 
644 | COc1cc(-c2cc(C(=O)N3CC[C@H](C(=O)NCc4ncc(N5CC6CC5CN6)cn4)CC34CC4)n[nH]2)c(F)cn1 (single isomer, unassigned) [Example 467-B] | > 10000 | 
71.6 | COc1cc(-c2cc(C(=O)N3CC[C@H](C(=O)NC4CCC(O)(C(F)(F)F)C(O)C4)CC34CC4)n[nH]2)c(F)cn1 (single isomer, unassigned) [Example 474-F] | 2540 | 
7.8 | COc1cc(-c2cc(C(=O)N3CC[C@H](C(=O)NC4CCC(C(F)(F)F)C(O)C4)CC34CC4)n[nH]2)c(F)cn1 (single isomer, unassigned) [Example 501-A] | 21.4 | 
149 | COc1cc(-c2cc(C(=O)N3CC[C@H](C(=O)Nc4cnn5c4CC(O)CC5)CC34CC4)n[nH]2)c(F)cn1 (single isomer, unassigned) [Example 514-A] | 4200 | 
59.6 | COc1cc(-c2cc(C(=O)N3CC[C@H](C(=O)Nc4cnn5c4CC(O)CC5)CC34CC4)n[nH]2)c(F)cn1 (single isomer, unassigned) [Example 514-B] | 4310 | 
130 | COc1cc(-c2cc(C(=O)N3CC[C@H](C(=O)NC45CC(CO)(C4)OC5C)CC34CC4)n[nH]2)c(F)cn1 (single isomer, unassigned) [Example 518-A] | 3130 | 
1.4 | O=C(NC1CCC(O)(C(F)(F)F)CC1)C1CCN(C(=O)c2cc(-c3cc(Cl)ncc3F)[nH]n2)C2(CC2)C1 (single isomer, unassigned) [Example 529-B] | 9.2 | 
